This test concerns glutamate uptake in synaptosomes of rat cerebellum.

Each structure is given as a SMILES string.

Results on one compound are retold here after US6245791A (Aventis Pharma S.A., priority 1998, dated 2001).

Method: The increase in glutamate uptake is evaluated in a suspension of synaptosomes prepared from rat cerebellar cells.
The synaptosomes were prepared according to a modification of the method described by Robinson, M. B., et al., (Brain Res., 544: 196-202, 1991). The tissues of cerebellum or of other regions of the brain of male rats of the Sprague-Dawley breed are homogenized in a sucrose solution (0.32 M) at 4° C. and then centrifuged at 800 g for 10 minutes. The supernatant is then recentrifuged at 20,000 g for 20 minutes. The centrifugation pellet obtained is resuspended in an identical sucrose solution and then centrifuged again at 20,000 g for 20 minutes. The synaptosomes are contained in this second centrifugation pellet. They are suspended and used immediately for measuring glutamate uptake. This is monitored with the aid of tritium-labelled glutamate ([^3 H]glutamate) diluted in a solution of nonradioactive glutamate. After 3 minutes of incubation at 37° C., the synaptosomes are separated from the incubation medium by filtration. […] This radioactivity is proportional to the glutamate uptake. The results are expressed as specific uptake, that is to say the uptake which depends on the presence of sodium ions in the incubation medium. It can be distinguished from the nonspecific uptake which corresponds to the radioactivity measured after equimolar replacement of sodium chloride in the incubation medium with choline chloride. The specific uptake corresponds to the total radioactivity minus the radioactivity measured in the presence of choline chloride.
The data are the mean values±SEM of n=8 independent observations.

As for `Nc1nc2ccc(OC(F)(F)F)cc2s1` [riluzole, 2-amino-6-trifluoromethoxybenzothiazole], the “dependence of the increase in glutamate uptake on the age of the rats” value (cerebellum, postnatal period to adult age, stable after about 10 weeks) is “increases with the age of the rats”. Besides, the “uptake of radioactive glutamate (result in words)” value (rat cerebellar synaptosomes, increasing concentrations of riluzole (FIG. 1)) is “increased in a concentration-dependent manner”. Further, where the note is “rat cerebellar synaptosomes, specific uptake, n=8, 3 min”, the “maximum increase in glutamate uptake” value is reported as ~40 % of the control values.
